The subject of this experiment is Cholesterinesterase. In words: Cholesterol esterase activity: rate of ester cleavage, continuous-flow apparatus with photometric cholesterol indicator reaction (546 nm). The class given is biochemical. On the procedure:
Zum Nachweis der aktivierenden Wirkung der zu untersuchenden synergistischen Kombinationen der Erfindung auf Cholesterinesterase wurde die in Fig. 1 dargestellte Apparatur verwendet.
Aus einem temperierbaren Reaktionsgefäß 1 (25°C), in dem sich die Esterspaltung vollzieht, werden über eine Schlauchpumpe 2 durch einen Förderschlauch 3 definierten Querschnitts kontinuierlich o,32 ml Gemisch/Minute entnommen. über die gleiche Pumpe wird durch einen zweiten Schlauch 4 aus einem Vorratsgefäß 5 ebenfalls kontinuierlich 1,o ml Indikatorlösung/Minute gefördert, hinter der Pumpe 2 mit einem Luftstrom 6 von konstant o,6 ml Luft/ Minute zusammengeführt und damit segmentiert und dann mit dem zuvor beschriebenen Reaktionsgemischstrom vereinigt. Der Gesamtstrom passiert daraufhin zwei Glasschlangen 7, wodurch eine Durchmischung der Flüssigkeiten und die notwendige Reaktionszeit für die Indikatorreaktion bis zum Endpunkt gewährleistet wird. Durch Abziehen eines Stroms von 1,2 ml/Minute unmittelbar vor der Küvette durch Schlauchleitung 8 senkrecht nach oben werden die Luftblasen wieder entfernt. Der nicht segmentierte Reststrom wird zur photometrischen Messung (bei 546 nm) in eine Durchflußküvette (1 cm Schichtdicke) geleitet und die Meßwerte werden vom Schreiber 1o registriert.
Wegen der gleichbleibenden Bedingungen bezüglich der Indikatorreaktion sind Änderungen in Höhe und Verlauf des Meßsignals allein von den Vorgängen im Reaktionsgefäß abhängig. Findet dort eine Esterspaltung statt, so bewirkt deren kinetischer Verlauf eine Zunahme des Meßsignals, welches als positive Steigung mit dem Schreiber 1o registriert wird. Die Steilheit des Anstiegs ist ein Maß für die Reaktionsgeschwindigkeit und damit für die Cholesterinesteraseaktivität im Reaktionsansatz.
Wegen des getrennten Ablaufs von Esterspaltung und Indikatorreaktion ist eine gegenseitige Beeinflussung ausgeschlossen. Natürlich wären auch andere Indikatorsysteme einschließlich der Sauerstoffelektrode verwendbar.
Die Indikatorlösung setzt zunächst freies Cholesterin zu Cholestenon und H202 um. Das entstandene H202 wird mit Phenol und 4-Aminoantipyrin zu einem roten Farbstoff umgesetzt, dessen Absorption photometrisch gemessen wird. Die Menge des entstehenden Farbstoffs ist der Konzentration des freien Cholesterins proportional. Die Konzentration an freiem Cholesterin setzt sich aus dem bereits im Substrat vorhandenen Anteil an freiem Cholesterin sowie aus dem durch die Esterase freigesetzten Cholesterin zusammen.
Start mit 50 µl einer Esterase-Stocklösung, woraufhin o,oo3 U/ml Esterase im Ansatz vorliegen. Bei Aktivitätsabstufungen wurde diese Menge variiert.
Nach erfolgtem Start und Durchmischung wird bei laufender Pumpe 2 der Förderschlauch 3 in die Lösung im Reaktionsgefäß 1 für etwa 1o Minuten eingetaucht. Anschließend wird zur besseren Trennung der Signale in jeweils etwa 1o Segmenten wechselweise Luft und bidest. Wasser angesaugt. Daraufhin kann die nächste Bestimmung erfolgen.

The structures appear in SMILES notation.

Consider `Oc1ccccc1` [Phenol], for which the “Resultierende Geschwindigkeit gegenüber Vergleichswert” value (4o mM (ca. o,35 Gew.-%) additive, 1o %o Genapol OX-1oo/1o %o Na-Caprylat, o,oo3 U/ml Cholesterinesterase, o,1 M Kaliumphosphatpuffer, pH 7,o with adjuvant vs o,3 M buffer without adjuvant) was “Der Vergleichswert wird erreicht”.

Take `OC1CCCCC1` [Cyclohexanol]: the “Resultierende Geschwindigkeit gegenüber Vergleichswert” value is, setting by setting: (1 Vol.-% additive, o,3 M Kaliumphosphatpuffer, pH 7,o, reduced Tergitol NPX concentration with adjuvant vs detergent concentration optimum without adjuvant, o,oo3 U/ml Cholesterinesterase) “Der Vergleichswert wird deutlich übertroffen”; (2 Vol.-% additive (example 6.3), 15 %o Tergitol NPX, 0,003 U/ml Cholesterinesterase, o,1 M Kaliumphosphatpuffer, pH 7,o with adjuvant vs o,3 M buffer without adjuvant, 25°C) “Der Vergleichswert wird deutlich übertroffen”; (2 Vol.-% additive, 0,3 M Kaliumphosphatpuffer, pH 7,o, reduced Genapol OX-1oo/Natriumcaprylat concentration with adjuvant vs detergent concentration optimum without adjuvant, o,oo3 U/ml Cholesterinesterase) “Der Vergleichswert wird übertroffen”; (2 Vol.-% additive, 1o %o Genapol OX-1oo/1o %o Na-Caprylat, o,oo3 U/ml Cholesterinesterase, o,1 M Kaliumphosphatpuffer, pH 7,o with adjuvant vs o,3 M buffer without adjuvant) “Der Vergleichswert wird übertroffen”.

Regarding `CC(C)CC(C)O` (stereo not shown) [4-Methylpentanol-(2)], the “Resultierende Geschwindigkeit gegenüber Vergleichswert” value by setting is: (1,4 Vol.-% additive, 15 %o Tergitol NPX, 0,003 U/ml Cholesterinesterase, o,1 M Kaliumphosphatpuffer, pH 7,o with adjuvant vs o,3 M buffer without adjuvant, 25°C) “Der Vergleichswert wird übertroffen”; (1 Vol.-% additive, 0,3 M Kaliumphosphatpuffer, pH 7,o, reduced Genapol OX-1oo/Natriumcaprylat concentration with adjuvant vs detergent concentration optimum without adjuvant, o,oo3 U/ml Cholesterinesterase) “Der Vergleichswert wird erreicht”.

Take `OCC(Cl)(Cl)Cl` [2,2,2-Trichloräthanol]: the “Resultierende Geschwindigkeit gegenüber Vergleichswert” value reads like this: (1 Vol.-% additive, 1o %o Genapol OX-1oo/1o %o Na-Caprylat, o,oo3 U/ml Cholesterinesterase, o,1 M Kaliumphosphatpuffer, pH 7,o with adjuvant vs o,3 M buffer without adjuvant) “Der Vergleichswert wird übertroffen”; (o,1 Vol.-% additive, o,3 M Kaliumphosphatpuffer, pH 7,o, reduced Tergitol NPX concentration with adjuvant vs detergent concentration optimum without adjuvant, o,oo3 U/ml Cholesterinesterase) “Der Vergleichswert wird übertroffen”; (o,3 Vol.-% additive, 0,3 M Kaliumphosphatpuffer, pH 7,o, reduced Genapol OX-1oo/Natriumcaprylat concentration with adjuvant vs detergent concentration optimum without adjuvant, o,oo3 U/ml Cholesterinesterase) “Der Vergleichswert wird deutlich übertroffen”.

The record behind these values is patent EP0016946A1, “Process and reagent for the activation of cholesterol esterase” (BOEHRINGER MANNHEIM GMBH, priority 1979, dated 1980).
